The source made the active and inactive calls. The rule behind the calls is not given here.
Assays:
[1] = tested on: 4T1; test: Cytotoxicity against mouse 4T1 cells assessed as reduction in cell viability incubated for 48 hrs by MTT assay; assay type: functional, cell-based; details: 4T1, 48 h
[2] = tested on: MCF7; test: Cytotoxicity against human MCF7 cells assessed as reduction in cell viability incubated for 48 hrs by MTT assay; assay type: functional, cell-based; details: MCF7, 48 h
[3] = tested on: HT-1080; test: Cytotoxicity against human HT-1080 cells assessed as reduction in cell viability incubated for 48 hrs by MTT assay; assay type: functional, cell-based; details: HT-1080, 48 h
[4] = tested on: HT-1080; test: Cytotoxicity against human HT-1080 cells assessed as reduction in cell viability incubated for 48 hrs in presence of Fer-1 by MTT assay; assay type: functional, cell-based; details: HT-1080, 48 h
[5] = Selectivity index, ratio of IC50 for cytotoxicity against human HT-1080 cells in presence of Fer-1 to IC50 for cytotoxicity against human HT-1080 cells; assay type: functional
[6] = molecular target: T1, Phospholipid hydroperoxide glutathione peroxidase GPX4 (Homo sapiens) (UniProt P36969); test: Inhibition of GPX4 in mouse 4T1 cells assessed as decrease in intracellular GPX4 activity at 5 uM after 6 hrs; assay type: cell-based
T1 sequence (whole entry): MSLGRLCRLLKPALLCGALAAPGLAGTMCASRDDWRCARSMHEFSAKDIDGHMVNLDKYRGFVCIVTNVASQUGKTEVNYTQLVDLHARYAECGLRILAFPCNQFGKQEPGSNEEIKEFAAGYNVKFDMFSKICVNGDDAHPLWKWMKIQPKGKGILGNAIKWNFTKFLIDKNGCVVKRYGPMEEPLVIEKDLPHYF

[7] = tested on: 4T1; test: Effect on intracellular GSH level in mouse 4T1 cells assessed as reduction in GSH level; assay type: functional, cell-based

SMILES | IC50 [1] | IC50 [2] | IC50 [3] | IC50 [4] | Ratio IC50 [5] | inhibition [6] | Activity [7]
CCOC(=O)c1ccc(N(C(=O)CCl)C(C(=O)NCCc2ccc(Cl)cc2)c2c[nH]c3ccccc23)cc1 (stereo not drawn) | 2.07 µM | 16.3 µM | 0.43 µM | 4.31 µM | 10 | – | –
CCOC(=O)c1ccc(CN(C(=O)CCl)C(C(=O)NCc2ccccc2)c2c[nH]c3ccccc23)cc1 (stereo not drawn) | 9.91 µM | 20.4 µM | 3 µM | 4.9 µM | 1.63 | – | –
CCOC(=O)c1ccc(N(C(=O)CCl)C(C(=O)NCCc2ccccc2)c2ccnn2C)cc1 (stereo not drawn) | 10.2 µM | 8.97 µM | 2.1 µM | 2.5 µM | 1.2 | – | –
C=CCNC(=O)C(c1c[nH]c2ccccc12)N(C(=O)CCl)c1ccc(C(=O)OCC)cc1 (stereo not drawn) | 2.15 µM | 12.6 µM | 0.74 µM | 4.57 µM | 6.2 | – | –
CCOC(=O)c1ccc(N(C(=O)CCl)C(C(=O)NCCc2ccccc2)c2csc3ccccc23)cc1 (stereo not drawn) | 1.48 µM | 12.5 µM | 0.28 µM | 4.7 µM | 16.8 | – | –
CCOC(=O)c1ccc(N(C(=O)CCl)C(C(=O)NCCc2ccccc2)c2c[nH]c3ncccc23)cc1 (stereo not drawn) | 9.3 µM | 6.85 µM | 3.2 µM | 5.3 µM | 1.7 | – | –
CCOC(=O)c1ccc(CN(C(=O)CCl)C(C(=O)NC(C)(C)C)c2c[nH]c3ccccc23)cc1 (stereo not drawn) | 9.43 µM | 15.5 µM | 16 µM | 16 µM | 1 | – | –
Cc1noc(-c2ccc(N(C(=O)CCl)C(C(=O)NCCc3ccccc3)c3c[nH]c4ccccc34)cc2)n1 (stereo not drawn) | 1.94 µM | 13.2 µM | 0.33 µM | 4.21 µM | 12.8 | – | –
O=C(NCCc1ccccc1)C(c1csc2ccccc12)N(C(=O)CCl)c1ccc(-c2nnco2)cc1 (stereo not drawn) | 0.81 µM | 7.06 µM | 0.2 µM | 3.9 µM | 19.5 | – | –
CCOC(=O)c1ccc(N(C(=O)CCl)C(C(=O)NC2CCCCC2)c2c[nH]c3ccccc23)cc1 (stereo not drawn) | 4.63 µM | 9.01 µM | 0.93 µM | 3.45 µM | 3.7 | – | –
Cc1noc(-c2ccc(N(C(=O)CCl)C(C(=O)NCCc3ccccc3)c3csc4ccccc34)cc2)n1 (stereo not drawn) | 0.75 µM | 8.28 µM | 0.21 µM | 3.5 µM | 16.7 | – | –
CCOC(=O)c1ccc(N(C(=O)CCl)C(C(=O)NCc2ccccc2)c2c[nH]c3ccccc23)cc1 (stereo not drawn) | 4.92 µM | 11.9 µM | 1.1 µM | 6.4 µM | 5.8 | – | –
CCOC(=O)c1ccc(N(C(=O)CCl)C(C(=O)NCCc2ccccc2)c2cccc3[nH]ccc23)cc1 (stereo not drawn) | 2.96 µM | 14.8 µM | 0.4 µM | 1.3 µM | 3.2 | – | –
CCOC(=O)c1ccc(N(C(=O)CCl)C(C(=O)NC(C)(C)C)c2c[nH]c3ccccc23)cc1 (stereo not drawn) | 3.22 µM | 12.1 µM | 0.43 µM | 4.2 µM | 9.8 | – | –
CCOC(=O)c1ccc(N(C(=O)CCl)C(C(=O)NCCc2cccc(OC)c2)c2c[nH]c3ccccc23)cc1 (stereo not drawn) | 2.35 µM | 11.3 µM | 0.41 µM | 4.88 µM | 11.9 | – | –
CCOC(=O)c1ccc(N(C(=O)CCl)C(C(=O)NCCc2cccc(C(F)(F)F)c2)c2c[nH]c3ccccc23)cc1 (stereo not drawn) | 2.17 µM | 10.3 µM | 0.56 µM | 5.03 µM | 9 | – | –
O=C(NCCc1ccccc1)C(c1c[nH]c2ccccc12)N(C(=O)CCl)c1ccc(F)cc1 (stereo not drawn) | 9.21 µM | 13.5 µM | – | – | – | – | –
CCOC(=O)c1ccc(CN(C(=O)CCl)C(C(=O)NCCc2ccccc2)c2c[nH]c3ccccc23)cc1 (stereo not drawn) | 5.86 µM | 14.8 µM | 2.3 µM | 4.4 µM | 1.91 | – | –
O=C(NCCc1ccccc1)C(c1c[nH]c2ccccc12)N(C(=O)CCl)c1ccc(Br)cc1 (stereo not drawn) | 6.47 µM | 10.9 µM | – | – | – | – | –
CCOC(=O)c1ccc(N(C(=O)CCl)C(C(=O)NCCc2cccc(Cl)c2)c2c[nH]c3ccccc23)cc1 (stereo not drawn) | 1.99 µM | 9.26 µM | 0.37 µM | 4.5 µM | 12.2 | – | –
CCOC(=O)c1ccc(N(C(=O)CCl)C(C(=O)NCCc2ccccc2)c2c[nH]c3ccccc23)cc1 (stereo not drawn) | 1.93 µM | 8.71 µM | 0.3 µM | 4.43 µM | 14.7 | – | –
O=C(NCCc1ccccc1)C(c1c[nH]c2ccccc12)N(C(=O)CCl)c1ccc(-c2nnco2)cc1 (stereo not drawn) | 0.89 µM | 5.92 µM | 0.35 µM | 4.52 µM | 12.9 | – | –
COc1ccc(N(C(=O)CCl)C(C(=O)NCCc2ccccc2)c2cccs2)cc1Cl (stereo not drawn) | 2.52 µM | 10.1 µM | 0.66 µM | 7.31 µM | 11.1 | – | –
O=C(NCCc1ccccc1)C(c1c[nH]c2ccccc12)N(C(=O)CCl)c1ccc(-c2cnco2)cc1 (stereo not drawn) | 1.04 µM | 5.7 µM | 0.16 µM | 3.92 µM | 24.5 | – | –
COC(=O)c1ccc([C@H]2c3[nH]c4ccccc4c3C[C@H](C(=O)OC)N2C(=O)CCl)cc1 | 3.69 µM | 13.6 µM | 1.2 µM | 3.7 µM | 3.1 | 11.8% | inactive
N#Cc1ccc(N(C(=O)CCl)C(C(=O)NCCc2ccccc2)c2c[nH]c3ccccc23)cc1 (stereo not drawn) | 9.3 µM | 6.85 µM | 0.75 µM | 4.2 µM | 5.6 | – | –
CCOC(=O)c1ccc(N(C(=O)CCl)C(C(=O)NCCc2ccccc2Cl)c2c[nH]c3ccccc23)cc1 (stereo not drawn) | 2.31 µM | 13.4 µM | 0.89 µM | 3.21 µM | 3.6 | – | –
COc1ccc(N(C(=O)CCl)C(C(=O)NCCc2ccccc2)c2c[nH]c3ccccc23)cc1 (stereo not drawn) | 9.72 µM | 15.3 µM | – | – | – | – | –
CCOC(=O)c1ccc(N(C(=O)CCl)C(C(=O)NCCc2ccccc2)c2cc[nH]n2)cc1 (stereo not drawn) | 4.47 µM | 15.2 µM | 0.7 µM | 4.3 µM | 6.1 | – | –

Source: ChEMBL document CHEMBL4842375, “Discovery of a Potent Glutathione Peroxidase 4 Inhibitor as a Selective Ferroptosis Inducer” (J Med Chem, 2021)
